# Results from patent publication US9980943B2, “Methods of treating muscular dystrophy” (BOARD OF REGENTS OF THE NEVADA SYSTEM OF HIGHER EDUCATION, …, priority 2013, dated 2018).
# Like-named read-outs stand apart in the source and are kept apart here.
# Columns and labels:
# Type in all cases: cell-based, mouse
# [1] = tested on: α7 integrin (LacZ reporter in α7βgal+/− myoblasts); test: Myoblast α7+/LacZ integrin FDG assay (Burkin assay in myoblasts, 96-well); details: α7+/LacZ myoblasts, 96-well; for fold induction at 0.5 µM / fold induction at 1 µM / fold induction at 5 µM / fold induction at 10 µM / fold induction at 20 µM / fold induction at 40 µM: Mus musculus, Myoblast, 48 h
# [2] = tested on: α7 integrin (LacZ reporter in α7+/LacZ myotubes); test: Myotube α7 integrin FDG assay (Burkin assay in myotubes, 96-well); details: myotubes; for fold induction at 0.5 µM / fold induction at 1 µM / fold induction at 5 µM / fold induction at 10 µM / fold induction at 20 µM / fold induction at 40 µM: Mus musculus, Myotube
# [3] = tested on: β-galactosidase in CMV-LacZ C2C12 myotubes; test: CMV-LacZ secondary screen in C2C12 myotubes (β-Gal stabilizing assay); details: for CMV-LACZ in Myotubes (β-galactosidase activity relative to DMSO): CMV-LacZ C2C12 myotubes, 96-well format
# Procedure, shortened: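 First, C2C12 myoblasts were transfected with a linearized CMV-LACZ vector and clonal lines selected by FDG β-gal assay. Then cells were exposed to compounds at 0.5, 1, 5, 10, 20 and 40 μM in 96-well format, two replicates each, and β-gal measured.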
# [4] = 5 uM, C2C12 CMV-LacZ myotubes, fold relative to DMSO
# [5] = 10 uM, C2C12 CMV-LacZ myotubes, fold relative to DMSO
# [6] = 20 uM, C2C12 CMV-LacZ myotubes, fold relative to DMSO
# [7] = 40 uM, C2C12 CMV-LacZ myotubes, fold relative to DMSO
Structure (SMILES),"Burkin Assay in Myoblasts, value relative to DMSO ([1]; 0.5 uM)","Burkin Assay in Myoblasts, value relative to DMSO ([1]; 1 uM)","Burkin Assay in Myoblasts, value relative to DMSO ([1]; 5 uM)","Burkin Assay in Myoblasts, value relative to DMSO ([1]; 10 uM)","Burkin Assay in Myoblasts, value relative to DMSO ([1]; 20 uM)","Burkin Assay in Myoblasts, value relative to DMSO ([1]; 40 uM)",Burkin Assay in Myotubes (signal relative to DMSO) ([2]; 0.5 uM),Burkin Assay in Myotubes (signal relative to DMSO) ([2]; 1 uM),Burkin Assay in Myotubes (signal relative to DMSO) ([2]; 5 uM),Burkin Assay in Myotubes (signal relative to DMSO) ([2]; 10 uM),Burkin Assay in Myotubes (signal relative to DMSO) ([2]; 20 uM),Burkin Assay in Myotubes (signal relative to DMSO) ([2]; 40 uM),CMV-LACZ in Myotubes (β-galactosidase activity relative to DMSO) ([3]; 5 uM),CMV-LACZ in Myotubes (β-galactosidase activity relative to DMSO) ([3]; 10 uM),CMV-LACZ in Myotubes (β-galactosidase activity relative to DMSO) ([3]; 20 uM),CMV-LACZ in Myotubes (β-galactosidase activity relative to DMSO) ([3]; 40 uM),"CMV-LACZ in Myotubes, signal relative to DMSO [3, 4]","CMV-LACZ in Myotubes, signal relative to DMSO [3, 5]","CMV-LACZ in Myotubes, signal relative to DMSO [3, 6]","CMV-LACZ in Myotubes, signal relative to DMSO [3, 7]",other results
COc1ccc(C(=O)O/N=C(\N)c2cccc(C)c2)cc1OC [MLS001165323-01],0.9704,0.9491,0.8821,0.924,0.8743,0.4779,0.9468,0.9627,1.166,1.153,1.054,1.088,1.072,0.9,1.315,1.488,–,–,–,–,–
COc1cc2c(cc1NC(=O)Cc1ccc(C)cc1)oc1ccccc12 [MLS000579238-01],–,–,–,–,–,–,–,–,–,–,–,–,–,–,–,–,–,–,–,–,"fold induction at 0.5 µM ([1]; 0.5 uM, read-out: Burkin Assay in Myoblasts, signal relative to DMSO): 0.961; fold induction at 1 µM ([1]; 1 uM, read-out: Burkin Assay in Myoblasts, signal relative to DMSO): 1.11; fold induction at 5 µM ([1]; 5 uM, read-out: Burkin Assay in Myoblasts, signal relative to DMSO): 1.17; fold induction at 10 µM ([1]; 10 uM, read-out: Burkin Assay in Myoblasts, signal relative to DMSO): 1.3; fold induction at 20 µM ([1]; 20 uM, read-out: Burkin Assay in Myoblasts, signal relative to DMSO): 1.11; fold induction at 40 µM ([1]; 40 uM, read-out: Burkin Assay in Myoblasts, signal relative to DMSO): 0.912; fold induction at 0.5 µM ([2]; 0.5 uM, read-out: Burkin Assay in Myotubes, α7 integrin LacZ reporter signal relative to DMSO): 0.951; fold induction at 1 µM ([2]; 1 uM, read-out: Burkin Assay in Myotubes, α7 integrin LacZ reporter signal relative to DMSO): 1.11; fold induction at 5 µM ([2]; 5 uM, read-out: Burkin Assay in Myotubes, α7 integrin LacZ reporter signal relative to DMSO): 1.01; fold induction at 10 µM ([2]; 10 uM, read-out: Burkin Assay in Myotubes, α7 integrin LacZ reporter signal relative to DMSO): 1.1; fold induction at 20 µM ([2]; 20 uM, read-out: Burkin Assay in Myotubes, α7 integrin LacZ reporter signal relative to DMSO): 0.856; fold induction at 40 µM ([2]; 40 uM, read-out: Burkin Assay in Myotubes, α7 integrin LacZ reporter signal relative to DMSO): 0.771; fold induction at 5 µM ([3]; Mus musculus, C2C12, read-out: CMV-LACZ in Myotubes, signal relative to DMSO, 5 uM, C2C12 CMV-LacZ myotubes, fold relative to DMSO): 0.815; fold induction at 10 µM ([3]; Mus musculus, C2C12, read-out: CMV-LACZ in Myotubes, signal relative to DMSO, 10 uM, C2C12 CMV-LacZ myotubes, fold relative to DMSO): 0.872; fold induction at 20 µM ([3]; Mus musculus, C2C12, read-out: CMV-LACZ in Myotubes, signal relative to DMSO, 20 uM, C2C12 CMV-LacZ myotubes, fold relative to DMSO): 0.83; fold induction at 40 µM ([3]; Mus musculus, C2C12, read-out: CMV-LACZ in Myotubes, signal relative to DMSO, 40 uM, C2C12 CMV-LacZ myotubes, fold relative to DMSO): 0.944"
Cc1ccc(NCc2nnc(SCC(=O)Nc3nnc(C)s3)n2C)cc1 [MLS000688437-01],–,–,–,–,–,–,–,–,–,–,–,–,–,–,–,–,1.232,0.9346,1.03,1.051,"Burkin Assay in Myoblasts, signal relative to DMSO ([1]; 0.5 uM): 0.8901; Burkin Assay in Myoblasts, signal relative to DMSO ([1]; 1 uM): 0.8878; Burkin Assay in Myoblasts, signal relative to DMSO ([1]; 5 uM): 0.8233; Burkin Assay in Myoblasts, signal relative to DMSO ([1]; 10 uM): 0.9077; Burkin Assay in Myoblasts, signal relative to DMSO ([1]; 20 uM): 0.8203; Burkin Assay in Myoblasts, signal relative to DMSO ([1]; 40 uM): 0.8064; Burkin Assay in Myotubes, α7 integrin LacZ reporter signal relative to DMSO ([2]; 0.5 uM): 1.076; Burkin Assay in Myotubes, α7 integrin LacZ reporter signal relative to DMSO ([2]; 1 uM): 1.194; Burkin Assay in Myotubes, α7 integrin LacZ reporter signal relative to DMSO ([2]; 5 uM): 1.124; Burkin Assay in Myotubes, α7 integrin LacZ reporter signal relative to DMSO ([2]; 10 uM): 1.102; Burkin Assay in Myotubes, α7 integrin LacZ reporter signal relative to DMSO ([2]; 20 uM): 0.9929; Burkin Assay in Myotubes, α7 integrin LacZ reporter signal relative to DMSO ([2]; 40 uM): 1.034"
CC(C)(CC(=O)O)CC(=O)N1CCCN(c2nccc(C(F)(F)F)n2)CC1 [MLS001181671-01],1.052,0.965,0.8759,0.8638,0.8113,0.891,1.071,0.9095,1.337,1.22,0.9854,0.9878,–,–,–,–,0.8803,0.9201,1.03,0.9377,–
CNc1nnc(SCC(=O)c2cc(C)n(C3CC3)c2C)s1 [MLS002156485-01],1.059,0.9382,0.9278,0.8752,1.052,1.026,1.0551,0.9807,1.2005,1.0687,1.057,1.156,0.9468,0.9523,1.115,0.9483,–,–,–,–,–
CC(=O)c1cccc(NC(=O)C(=O)Nc2cccc3ccccc23)c1 [MLS000765108-01],–,–,–,–,–,–,–,–,–,–,–,–,1.177,1.099,0.9927,0.97,–,–,–,–,"fold induction at 0.5 µM ([1]; 0.5 uM, read-out: Burkin Assay in Myoblasts, value relative to DMSO): 1.17; fold induction at 1 µM ([1]; 1 uM, read-out: Burkin Assay in Myoblasts, value relative to DMSO): 1.12; fold induction at 5 µM ([1]; 5 uM, read-out: Burkin Assay in Myoblasts, value relative to DMSO): 1.2; fold induction at 10 µM ([1]; 10 uM, read-out: Burkin Assay in Myoblasts, value relative to DMSO): 1.11; fold induction at 20 µM ([1]; 20 uM, read-out: Burkin Assay in Myoblasts, value relative to DMSO): 1.04; fold induction at 40 µM ([1]; 40 uM, read-out: Burkin Assay in Myoblasts, value relative to DMSO): 1.03; fold induction at 0.5 µM ([2]; 0.5 uM, read-out: Burkin Assay in Myotubes (signal relative to DMSO)): 0.872; fold induction at 1 µM ([2]; 1 uM, read-out: Burkin Assay in Myotubes (signal relative to DMSO)): 1.02; fold induction at 5 µM ([2]; 5 uM, read-out: Burkin Assay in Myotubes (signal relative to DMSO)): 1.06; fold induction at 10 µM ([2]; 10 uM, read-out: Burkin Assay in Myotubes (signal relative to DMSO)): 0.609; fold induction at 20 µM ([2]; 20 uM, read-out: Burkin Assay in Myotubes (signal relative to DMSO)): 0.922; fold induction at 40 µM ([2]; 40 uM, read-out: Burkin Assay in Myotubes (signal relative to DMSO)): 0.707"
